Source: patent US9198913B2, “Nitroimidazooxazines and their uses in anti-tubercular therapy” (priority 2009, dated 2015)
In brackets after ≈: the same amount, converted by molar mass.

What was measured:
[1] = Water solubility (sonicated suspension, HPLC); type: physicochemical; settings: in water; for solubility at 15 min: thermodynamic from solid;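 for all read-outs here: concentration in the clear supernatant quantified by HPLC peak area against a DMSO standard solution of the same compound, corrected for dilution and injection volume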
[2] = Stability to human liver microsomes; type: in vitro ADME; settings: 1 μM, 37° C., 60 min, pooled human liver microsomes;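 note: parent compound quantified by LC-MS/MS against an internal standard, duplicates averaged, expressed relative to the 0 min sample taken as 100%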
[3] = Stability to mouse liver microsomes; type: in vitro ADME; settings: 1 μM, 37° C., 60 min, CD-1 mouse liver microsomes;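 note: analyte quantified by LC-MS/MS as ratio to internal standard peak area, mean of duplicates, 60 min value expressed relative to the 0 min level (100%)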
M. tuberculosis Erdman [4] = assay: In vivo mouse acute TB infection assay; design: species or system Mycobacterium tuberculosis; settings: BALB/c mice; for In vivo efficacy vs PA-824, Acute: oral 100 mg/kg daily 5 days a week for 3 weeks from day 11 post-infection, ratio of average lung CFU reduction to that with PA-824
[5] = In vivo pharmacokinetics in mice; settings: CD-1 mice, oral, 40 mg/kg; for half-life / Kp / Cmax: mouse; for half-life / Cmax: in vivo, plasma; for half-life: read-out: t½ (h) plasma (converted); for Kp: lung/plasma, read-out: AUC ratio (lung/plasma);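 for all read-outs here: plasma and lung samples quantified by LC-MS/MS, dosing as a suspension in aqueous carboxymethylcellulose with Tween 80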
M. tuberculosis Erdman [6] = assay: In vivo mouse chronic TB infection assay; design: species or system Mycobacterium tuberculosis; settings: mice, oral 100 mg/kg, treatment beginning ~70 days after infection

| Compound | solubility at 15 min [1] | Microsomes (% remaining, 1 h) Human [2] | Microsomes (% remaining, 1 h) Mouse [3] | In vivo efficacy vs PA-824, Acute (M. tuberculosis Erdman [4]) | AUC lung [5] | half-life [5] | Kp [5] | melting point | Solubility [1] | Cmax [5] | log reductions in CFU (acute assay) (M. tuberculosis Erdman [4]; oral 100 mg/kg, lungs, vs vehicle, 'up to') | log reduction in CFU (chronic assay) (M. tuberculosis Erdman [6]) | In vivo efficacy vs PA-824, Chronic (M. tuberculosis Erdman [6]; ratio of average lung CFU reduction to that with PA-824) |
| --- | --- | --- | --- | --- | --- | --- | --- | --- | --- | --- | --- | --- | --- |
| O=[N+]([O-])c1cn2c(n1)OC[C@@H](OCc1ccc(-c3ccc(OC(F)(F)F)cc3)cc1F)C2 [Compound 12, (6S)-6-{[3-Fluoro-4′-(trifluoromethoxy)[1,1′-biphenyl]-4-yl]methoxy}-2-nitro-6,7-dihydro-5H-imidazo[2,1-b][1,3]oxazine] | 1.4 µg/mL (≈ 3.09 µM) | 93% | 85% | 33 | 549 µg·h/mL | 22 h | 2.7 | 160 to 162 °C | – | – | – | – | – |
| O=[N+]([O-])c1cn2c(n1)OC[C@@H](OCc1cnc(-c3ccc(OC(F)(F)F)cc3)nc1)C2 [Compound 16, (6S)-2-Nitro-6-({2-[4-(trifluoromethoxy)phenyl]-5-pyrimidinyl}methoxy)-6,7-dihydro-5H-imidazo[2,1-b][1,3]oxazine] | – | 96% | 87% | – | 131 µg·h/mL | 23.1 h | – | 227 to 230 °C | 2.1 µg/mL (≈ 4.8 µM) | 1160 ng/mL | – | – | – |
| O=[N+]([O-])c1cn2c(n1)OC[C@@H](OCc1ccc(-c3ccc(OC(F)(F)F)cc3)nn1)C2 [Compound 24, (6S)-2-Nitro-6-({6-[4-(trifluoromethoxy)phenyl]-3-pyridazinyl}methoxy)-6,7-dihydro-5H-imidazo[2,1-b][1,3]oxazine] | – | 94% | 92% | – | 93.9 µg·h/mL | – | – | 194 °C (dec.) | 6.1 µg/mL (≈ 13.9 µM) | 3560 ng/mL | – | – | – |
| O=[N+]([O-])c1cn2c(n1)OC[C@@H](OCc1ccc(-c3ccc(OC(F)(F)F)cc3Cl)cc1)C2 [Compound 1, (6S)-6-{[2′-Chloro-4′-(trifluoromethoxy)[1,1′-biphenyl]-4-yl]methoxy}-2-nitro-6,7-dihydro-5H-imidazo[2,1-b][1,3]oxazine] | 0.66 µg/mL (≈ 1.4 µM) | 91% | 86% | – | 3363 µg·h/mL | 19.9 h | 17 | 80 to 82 °C | – | 6800 ng/mL | – | – | – |
| O=[N+]([O-])c1cn2c(n1)OC[C@@H](OCc1ccc(-c3ccc(OC(F)(F)F)c(F)c3)cc1)C2 [Compound 2, (6S)-6-{[3′-Fluoro-4′-(trifluoromethoxy)[1,1′-biphenyl]-4-yl]methoxy}-2-nitro-6,7-dihydro-5H-imidazo[2,1-b][1,3]oxazine] | 0.1 µg/mL (≈ 0.221 µM) | 93% | 86% | – | >513 µg·h/mL | 20.5 h | – | 169 to 171 °C | – | 17100 ng/mL | – | – | – |
| O=[N+]([O-])c1cn2c(n1)OC[C@@H](OCc1ccc(-c3ccc(C(F)(F)F)cn3)cc1F)C2 [Compound 14, (6S)-6-({2-Fluoro-4-[5-(trifluoromethyl)-2-pyridinyl]benzyl}oxy)-2-nitro-6,7-dihydro-5H-imidazo[2,1-b][1,3]oxazine] | 1.2 µg/mL (≈ 2.74 µM) | 90% | 77% | – | 148 µg·h/mL | 13.9 h | 16 | 233 to 235 °C | – | 440 ng/mL | – | – | – |
| O=[N+]([O-])c1cn2c(n1)OC[C@@H](OCc1ccc(-c3ccc(OC(F)(F)F)c(Cl)c3)nc1)C2 [Compound 28, (6S)-6-({6-[3-Chloro-4-(trifluoromethoxy)phenyl]-3-pyridinyl}methoxy)-2-nitro-6,7-dihydro-5H-imidazo[2,1-b][1,3]oxazine] | – | 87% | 77% | – | 284 µg·h/mL | 21.7 h | – | 169 to 171 °C | 0.18 µg/mL (≈ 0.382 µM) | 2890 ng/mL | – | – | – |
| O=[N+]([O-])c1cn2c(n1)OC[C@@H](OCc1ccc(OC(F)(F)F)cc1)C2 [PA-824, reference compound] | – | 82% | – | – | 296 µg·h/mL | 4.2 h | 3.8 | – | – | 5500 ng/mL | 2.5-3 log | ~2 log | – |
| O=[N+]([O-])c1cn2c(n1)OC[C@@H](OCC#Cc1ccc(-c3ccc(OC(F)(F)F)cc3)cc1)C2 [Compound 30, (6S)-2-Nitro-6-({3-[4′-(trifluoromethoxy)[1,1′-biphenyl]-4-yl]-2-propynyl}oxy)-6,7-dihydro-5H-imidazo[2,1-b][1,3]oxazine] | – | 93% | 85% | 89 | 13.6 µg·h/mL | – | 1.4 | 192 to 194 °C | 0.07 µg/mL (≈ 0.152 µM) | – | – | – | – |
| Cn1nc(-c2ccc(OC(F)(F)F)cc2)cc1CO[C@@H]1COc2nc([N+](=O)[O-])cn2C1 [Compound 11, (6S)-6-({1-Methyl-3-[4-(trifluoromethoxy)phenyl]-1H-pyrazol-5-yl}methoxy)-2-nitro-6,7-dihydro-5H-imidazo[2,1-b][1,3]oxazine] | 5.3 µg/mL (≈ 12.1 µM) | 86% | 81% | – | 92.4 µg·h/mL | 6.6 h | 4.7 | – | – | 1660 ng/mL | – | – | 0.9 |
| O=[N+]([O-])c1cn2c(n1)OC[C@@H](OCc1ccc(-c3ccc(OC(F)(F)F)c(F)c3)cn1)C2 [Compound 22, (6S)-6-({5-[3-Fluoro-4-(trifluoromethoxy)phenyl]-2-pyridinyl}methoxy)-2-nitro-6,7-dihydro-5H-imidazo[2,1-b][1,3]oxazine] | – | 97% | 86% | – | 155 µg·h/mL | – | 1.1 | 182 to 184 °C | 30 µg/mL (≈ 66 µM) | – | – | – | – |
| O=C(O[C@@H]1COc2nc([N+](=O)[O-])cn2C1)N1CCN(c2ccc(OC(F)(F)F)cc2)CC1 [Compound 20, (6S)-2-Nitro-6,7-dihydro-5H-imidazo[2,1-b][1,3]oxazin-6-yl 4-[4-(trifluoromethoxy)phenyl]-1-piperazinecarboxylate] | 17 µg/mL (≈ 37.2 µM) | 82% | 85% | – | 169 µg·h/mL | – | – | 166 to 168 °C | – | – | – | – | – |
| O=[N+]([O-])c1cn2c(n1)OC[C@@H](OCc1ccc(-c3ccc(C(F)(F)F)cn3)cc1)C2 [Compound 8, (6S)-2-Nitro-6-({4-[5-(trifluoromethyl)-2-pyridinyl]benzyl}oxy)-6,7-dihydro-5H-imidazo[2,1-b][1,3]oxazine] | – | 93% | 90% | – | 67.3 µg·h/mL | – | 3.3 | 252 to 254 °C | 0.20 µg/mL (≈ 0.476 µM) | – | – | – | – |
